Measurements taken from patent US12378192B2, “Crystalline form of capsid protein assembly inhibitor containing N hetero five-membered ring, and application thereof” (CHIA TAI TIANQING PHARMACEUTICAL GROUP CO., LTD., priority 2019, dated 2025).
pEC50: −log10 of the molar value.

Assays:
HBV DNA in HepAD38 cells = assay: In-vitro inhibitory activity against HBV DNA in HepAD38 cells; format: cell-based; conditions: Hepatitis B virus, 144 h, 6 days treatment, intracellular capsid HBV DNA by qPCR, read-out: EC50 (anti-HBV activity)
Method: (§1) A vial of HepG2.2.15 cells (Wuhan Institute of Virology) or HepAD38 cells in good condition and at logarithmic growth phase was washed once with 5 mL of PBS. 3 mL of pancreatin was added. The cells were digested at room temperature for 5 min, then 2 mL of pancreatin was discarded. The cells were further digested in a cell incubator for 10 min, and observed under a microscope (whether the cells are round in shape, and whether the cells are separated or adhered). 10 mL of complete medium was added to terminate the digestion. The cells was mixed using a pipette to obtain a single cell suspension. 10 μL of the cell suspension was loaded on a cell counter for counting, and diluted with the complete medium to adjust the cell density to 1×10^5 cells/mL. The cells were seeded on a 24-well plate (pre-coated with 50 μg/mL Collagen I solution) at 1 mL/well using a multi-channel pipette and cultured in a thermostatic CO2 incubator for 48 h.
(§2) A solution of the compound dissolved in DMSO was diluted to 10 concentrations in a 2-fold gradient using complete medium. The cells were treated with the compound for 6 days with the media containing the compound refreshed every 72 h. […] HBV DNA in the intracellular viral capsid was measured by real-time fluorescent quantitative PCR. The inhibition rate was calculated according to the Ct value, and the EC50 value was calculated by four-parameter fitting.

[1] = test system: HBV DNA in HepG2.2.15 cells; assay: In-vitro inhibitory activity against HBV DNA in HepG2.2.15 cells; format: cell-based; conditions: Hepatitis B virus, 144 h, 6 days treatment, intracellular capsid HBV DNA by qPCR, read-out: EC50 (anti-HBV activity)
Method: as §1, §2

[2] = Pharmacokinetic (PK) study in rats; format: in vivo; conditions: SD rats, PO 20 mg/kg
Method: SD rats (B&K Universal, Shanghai) of 180-220 g were randomized into groups of 3 after 3-5 days of acclimatization and administered with the compounds at a dose of 20 mg/kg by oral gavage.
The animals to be tested (SD rats) were fasted for 12 h before administration and fed 4 h after administration, and had free access to water before, after and during the experiment.
After administration, about 0.2 mL of blood was collected from the orbit at 0 min, 15 min, 30 min, 1 h, 2 h, 4 h, 6 h, 8 h, 10 h, 24 h, 30 h and 48 h. After anticoagulation with EDTA-K2, the blood samples were transferred to a centrifuge at 4° C. within 30 min and centrifuged at 4000 rpm for 10 min to separate the plasma. All the plasma samples were collected and immediately stored at −20° C. for testing. 50 μL of the plasma sample to be tested and standard curve sample were taken, and 500 μL of acetonitrile solution containing an internal standard (20 mg/mL diazepam) was added. The reaction system was shaken for 5 min and centrifuged at 12,000 rpm for 10 min. 75 μL of supernatant was taken and diluted with 75 μL of ultrapure water.
After being mixed well, 1 μL of the resulting sample was taken for LC/MS/MS analysis.

[3] = Plasma protein binding assay (equilibrium dialysis), human plasma; format: in vitro ADME
Method: (§3) Preparation of plasma samples: 5 μL of test compound solution or positive control was added to 495 μL of blank plasma of various species (mouse, rat, dog, monkey and human) to obtain plasma sample solutions at plasma concentrations of 1 μM and 10 μM (in acetonitrile).
(§4) The pretreated dialysis membrane was loaded on a high-throughput equilibrium dialysis system. 100 μL of the plasma sample solution and PBS buffer were added to the two sides (sample side and buffer side) of the dialysis membrane respectively (n=3). The system was sealed with a patch and incubated at 37° C. overnight (100 rpm) to achieve dialysis equilibrium. 50 μL samples were taken from the sample side and the buffer side, and the reaction was terminated with glacial acetonitrile containing an internal standard.
(§5) Sample pretreatment: 450 μL of glacial acetonitrile containing an internal standard was added to 50 μL of the sample from the plasma side for precipitation. The mixture was vortexed for 5 min, and centrifuged (12000 rpm, 4° C.) for 10 min. 75 μL of supernatant was taken and diluted with 75 μL of ultrapure water. After being mixed well, 1 μL of the resulting sample was injected for analysis; 250 μL of glacial acetonitrile containing an internal standard was added to 50 μL of the sample from the PBS side for precipitation. The mixture was vortexed for 5 min, and centrifuged (12000 rpm, 4° C.) for 10 min. […]

[4] = Plasma protein binding assay (equilibrium dialysis), monkey plasma; format: in vitro ADME
Method: as §3, §4, §5

[5] = Plasma protein binding assay (equilibrium dialysis), mouse plasma; format: in vitro ADME
Method: as §3, §4, §5

[6] = Plasma protein binding assay (equilibrium dialysis), dog plasma; format: in vitro ADME
Method: as §3, §4, §5

[7] = format: in vitro ADME
Method: A final incubation system of 300 μL contained 30 μL of liver microsomes (protein concentration: 0.15 mg/mL), 30 μL of NADPH+MgCl2, 3 μL of substrate (in acetonitrile) and 237 μL of PBS. Samples were prepared in duplicate of 0.3 mL for each specie. For each tube, the 270 μL mixed solution of substrates and enzyme and the NADPH solution were separately pre-incubated at 37° C. for 5 min. The 30 μL mixed solution of NADPH+MgCl2 was added for reaction. 50 μL samples were taken at 0 min, 10 min, 30 min and 60 min, and 300 μL of glacial acetonitrile containing an internal standard was added to the samples to terminate the reaction.
Sample pretreatment: 300 μL of glacial acetonitrile containing internal standard diazepam was added to 50 μL of the incubated sample for precipitation. The mixture was vortexed for 5 min, and centrifuged (12000 rpm, 4° C.) for 10 min. 75 μL of supernatant was added to a 96-well plate and diluted with 75 μL of ultrapure water. After being mixed well, 0.5 μL of the resulting sample was injected to a LC-MS/MS system for analysis.

[8] = Plasma protein binding assay (equilibrium dialysis), rat plasma; format: in vitro ADME
Method: as §3, §4, §5

[9] = Stability assay of crystalline form (influential factors: high temperature, high humidity, illumination); format: physicochemical; conditions: for Stability at high humidity, at high temperature or under illumination (in words): related substance and water over the observation items
Method: The crystalline form I of the compound of formula I prepared in Example 2 and the crystalline form II of the compound of formula I prepared in Example 4, each of 500 mg, were separately placed in dry and clean containers, and evenly spread in thin layers as test samples. The samples were completely exposed to experimental conditions of influential factors (40° C., 60° C., 75% RH, 92.5% RH, high temperature and high humidity (40° C., 75% RH)). Samples were taken for analysis on day 10 and day 30. The samples were completely exposed to illumination (visible light of 1,200,000 Lux·hr, UV of 216 W·hr/m^2) at room temperature.
Chromatographic column: Agilent AdvanceBio Peptide C18 (4.6 mm×150 mm, 3.5 μm).
The water content was measured by a Mettler V20 system.
About 10 mg of the sample was dissolved with an appropriate amount of a mixed diluent of acetonitrile-water (70:30) for content assay of related substance.

[10] = High humidity (92.5% RH), Day 10
[11] = High humidity (92.5% RH), Day 30
[12] = High temperature (40° C.), Day 10
[13] = High temperature (40° C.), Day 30
[14] = High temperature (60° C.), Day 10
[15] = High temperature (60° C.), Day 30
[16] = High temperature and high humidity (40° C., 75% RH), Day 10
[17] = High temperature and high humidity (40° C., 75% RH), Day 30

SMILES: Cc1c(C(=O)Nc2ccc(F)c(C#N)c2)c(C)n(C)c1C(=O)C(=O)N[C@@H](C)C(F)(F)F [Compound of formula I, (S)—N-(3-cyano-4-fluorophenyl)-1,2,4-trimethyl-5-(2-oxo-2-((1,1,1-trifluoropropan-2-yl)amino)acetyl)-1H-pyrrol-3-carboxamide]
- pEC50 (HBV DNA in HepAD38 cells): ≥ 8.00
- pEC50 [1]: ≥ 8.00
- F [2]: 57%
- Binding rate, Human ([3]; 1 μM): 94.0%
- Binding rate, Human ([3]; 10 μM): 93.7%
- Binding rate, Monkey ([4]; 1 μM): 90.7%
- Binding rate, Monkey ([4]; 10 μM): 90.6%
- Binding rate, Mouse ([5]; 1 μM): 75.3%
- Binding rate, Mouse ([5]; 10 μM): 74.5%
- Binding rate, Dog ([6]; 1 μM): 85.9%
- Binding rate, Dog ([6]; 10 μM): 85.9%
- Residual content after 60 min, Human liver microsome [7]: 78.8%
- Residual content after 60 min, Mouse liver microsome [7]: 67.1%
- Residual content after 60 min, Rat liver microsome [7]: 65.0%
- Binding rate, Rat ([8]; 1 μM): 82.0%
- Binding rate, Rat ([8]; 10 μM): 79.2%

SMILES: Cc1c(C(=O)Nc2ccc(F)c(C#N)c2)c(C)n(C)c1C(=O)C(=O)N[C@@H](C)C(F)(F)F [crystalline form I, (S)—N-(3-cyano-4-fluorophenyl)-1,2,4-trimethyl-5-(2-oxo-2-((1,1,1-trifluoropropan-2-yl)amino)acetyl)-1H-pyrrol-3-carboxamide]
- Related substance (total impurities) ([9]; Day 0): 0.55%
- Water ([9]; Day 0): 0.27%
- Related substance (total impurities) ([9]; High humidity (75% RH), Day 10): 0.72%
- Water ([9]; High humidity (75% RH), Day 10): 0.19%
- Related substance (total impurities) ([9]; High humidity (75% RH), Day 30): 0.66%
- Water ([9]; High humidity (75% RH), Day 30): 0.20%
- Related substance (total impurities) [9, 10]: 0.69%
- Water [9, 10]: 0.21%
- Related substance (total impurities) [9, 11]: 0.66%
- Water [9, 11]: 0.26%
- Related substance (total impurities) [9, 12]: 0.66%
- Water [9, 12]: 0.18%
- Related substance (total impurities) [9, 13]: 0.63%
- Water [9, 13]: 0.19%
- Related substance (total impurities) [9, 14]: 0.66%
- Water [9, 14]: 0.20%
- Related substance (total impurities) [9, 15]: 0.60%
- Water [9, 15]: 0.18%
- Related substance (total impurities) [9, 16]: 0.64%
- Water [9, 16]: 0.17%
- Related substance (total impurities) [9, 17]: 0.64%
- Water [9, 17]: 0.22%
- Related substance (total impurities) ([9]; Illumination, Day 10): 0.63%
- Water ([9]; Illumination, Day 10): 0.16%
- Stability at high humidity, at high temperature or under illumination (in words) [9]: good stability

SMILES: Cc1c(C(=O)Nc2ccc(F)c(C#N)c2)c(C)n(C)c1C(=O)C(=O)N[C@@H](C)C(F)(F)F [crystalline form II, (S)—N-(3-cyano-4-fluorophenyl)-1,2,4-trimethyl-5-(2-oxo-2-((1,1,1-trifluoropropan-2-yl)amino)acetyl)-1H-pyrrol-3-carboxamide]
- Related substance (total impurities) ([9]; Day 0): 0.24%
- Water ([9]; Day 0): 0.22%
- Related substance (total impurities) ([9]; High humidity (75% RH), Day 10): 0.23%
- Water ([9]; High humidity (75% RH), Day 10): 0.22%
- Related substance (total impurities) ([9]; High humidity (75% RH), Day 30): 0.25%
- Water ([9]; High humidity (75% RH), Day 30): 0.21%
- Related substance (total impurities) [9, 10]: 0.23%
- Water [9, 10]: 0.22%
- Related substance (total impurities) [9, 11]: 0.24%
- Water [9, 11]: 0.21%
- Related substance (total impurities) [9, 12]: 0.22%
- Water [9, 12]: 0.20%
- Related substance (total impurities) [9, 13]: 0.24%
- Water [9, 13]: 0.19%
- Related substance (total impurities) [9, 14]: 0.22%
- Water [9, 14]: 0.18%
- Related substance (total impurities) [9, 15]: 0.24%
- Water [9, 15]: 0.18%
- Related substance (total impurities) [9, 16]: 0.24%
- Water [9, 16]: 0.24%
- Related substance (total impurities) [9, 17]: 0.24%
- Water [9, 17]: 0.21%
- Related substance (total impurities) ([9]; Illumination, Day 10): 0.27%
- Water ([9]; Illumination, Day 10): 0.22%
- Stability at high humidity, at high temperature or under illumination (in words) [9]: good stability
